{"source": "patent US8633183B2", "about": "(priority 2010, dated 2014)"}
{"molecular_target": "PI3Kalpha (Homo sapiens (Human), UniProt P42336)", "sequence (P42336 whole entry, looked up)": "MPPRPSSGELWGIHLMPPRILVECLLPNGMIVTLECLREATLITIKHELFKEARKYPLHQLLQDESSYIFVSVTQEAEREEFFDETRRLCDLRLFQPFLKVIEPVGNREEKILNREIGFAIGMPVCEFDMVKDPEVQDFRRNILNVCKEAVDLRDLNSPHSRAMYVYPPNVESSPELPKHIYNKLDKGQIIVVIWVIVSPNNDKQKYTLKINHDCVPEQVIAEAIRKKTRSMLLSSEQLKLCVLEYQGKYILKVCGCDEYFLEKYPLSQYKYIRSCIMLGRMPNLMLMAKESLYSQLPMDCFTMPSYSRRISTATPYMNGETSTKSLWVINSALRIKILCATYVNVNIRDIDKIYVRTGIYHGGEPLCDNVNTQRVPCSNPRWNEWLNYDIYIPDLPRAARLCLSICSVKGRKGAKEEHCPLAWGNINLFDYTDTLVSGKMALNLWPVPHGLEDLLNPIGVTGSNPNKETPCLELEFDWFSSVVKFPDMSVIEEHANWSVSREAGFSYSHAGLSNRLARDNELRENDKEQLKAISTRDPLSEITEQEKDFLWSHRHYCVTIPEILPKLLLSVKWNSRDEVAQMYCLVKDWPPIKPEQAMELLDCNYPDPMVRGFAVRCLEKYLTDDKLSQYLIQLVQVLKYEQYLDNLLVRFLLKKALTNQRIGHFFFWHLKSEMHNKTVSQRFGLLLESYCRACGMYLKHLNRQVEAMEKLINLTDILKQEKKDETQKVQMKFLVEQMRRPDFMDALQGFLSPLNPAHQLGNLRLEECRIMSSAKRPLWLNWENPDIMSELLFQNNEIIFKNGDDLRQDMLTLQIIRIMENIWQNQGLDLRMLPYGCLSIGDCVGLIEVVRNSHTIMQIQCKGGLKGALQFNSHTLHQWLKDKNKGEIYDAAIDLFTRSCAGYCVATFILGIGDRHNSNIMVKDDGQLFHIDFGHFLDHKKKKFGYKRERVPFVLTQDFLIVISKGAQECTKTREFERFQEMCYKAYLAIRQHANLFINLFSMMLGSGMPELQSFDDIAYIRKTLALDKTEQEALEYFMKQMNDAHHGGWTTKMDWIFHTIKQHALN", "settings": "read-out: IC50 PI3K", "units": {"IC50": "nM"}}
{"smiles": "CCNc1ccc(C#Cc2c(CC)ncnc2-c2ccc(C(=O)N3CCC4(CC3)COC4)c(F)c2)cn1", "note": "[Example E-263]", "IC50": 204}
{"smiles": "CCNc1ccc(C#Cc2c(CC)ncnc2-c2ccc(C(=O)N3CCC4(CC3)CN(C(=O)OC(C)(C)C)C4)c(F)c2)cn1", "note": "[Example E-266]", "IC50": 560}
{"smiles": "CCNc1ccc(C#Cc2c(CC)ncnc2-c2ccc(C(=O)N3CC4(CN(C(=O)OC(C)(C)C)C4)C3)c(F)c2)cn1", "note": "[Example E-267]", "IC50": 421}
{"smiles": "CCc1ncnc(-c2ccc(C(=O)N3CCC4(CC3)CNC4)c(F)c2)c1C#Cc1ccc(N)nc1", "note": "[Example E-268]", "IC50": 242}
{"smiles": "CCc1ncnc(-c2ccc(C(=O)N3CC4(CNC4)C3)c(F)c2)c1C#Cc1ccc(N)nc1", "note": "[Example E-269]", "IC50": 252}
{"smiles": "CCc1ncnc(-c2ccc(C(=O)N3CC4(CNC4)C3)c(Cl)c2)c1C#Cc1ccc(N)nc1", "note": "[Example E-270]", "IC50": 328}
{"smiles": "CCc1ncnc(-c2ccc(C(=O)N3CCN(C4COC4)CC3)c(F)c2)c1C#Cc1ccc(N)nc1", "note": "[Example E-271]", "IC50": 113}
{"smiles": "CCc1ncnc(-c2ccc(C(=O)N3CCC(CN(C)C)CC3)c(F)c2)c1C#Cc1ccc(N)nc1", "note": "[Example E-272]", "IC50": 475}
{"smiles": "CCc1ncnc(-c2ccc(C(=O)N3CCN(C4COC4)CC3)c(Cl)c2)c1C#Cc1ccc(N)nc1", "note": "[Example E-273]", "IC50": 119}
{"smiles": "CCc1ncnc(-c2ccc(C(=O)N3CCC(CN(C)C)CC3)c(Cl)c2)c1C#Cc1ccc(N)nc1", "note": "[Example E-274]", "IC50": 445}
{"smiles": "CCc1ncnc(-c2cc(F)c(C(=O)N3CCN(C4COC4)CC3)c(F)c2)c1C#Cc1ccc(N)nc1", "note": "[Example E-275]", "IC50": 141}
{"smiles": "CCc1ncnc(-c2ccc(C(=O)N3CCN(C4COC4)CC3)c(F)c2)c1C#Cc1ccc(N)nc1C", "note": "[Example E-280]", "IC50": 153}
{"smiles": "CCc1ncnc(-c2ccc(C(=O)N3CCC(CN(C)C)CC3)c(F)c2)c1C#Cc1ccc(N)nc1C", "note": "[Example E-281]", "IC50": 679}
{"smiles": "CCc1ncnc(-c2cc(F)c(C(=O)N3CCN(C4COC4)CC3)c(Cl)c2)c1C#Cc1ccc(N)nc1", "note": "[Example E-282]", "IC50": 173}
{"smiles": "CCc1ncnc(-c2cc(F)c(C(=O)N3CCC(CN(C)C)CC3)c(Cl)c2)c1C#Cc1ccc(N)nc1", "note": "[Example E-283]", "IC50": 446}
{"smiles": "CCc1ncnc(-c2ccc(C(=O)N3CCN(CCN)CC3)c(Cl)c2)c1C#Cc1ccc(N)nc1", "note": "[Example E-284]", "IC50": 181}
{"smiles": "CCc1ncnc(-c2cc(F)c(C(=O)N3CCC(CN)CC3)c(Cl)c2)c1C#Cc1ccc(N)nc1", "note": "[Example E-285]", "IC50": 647}
{"smiles": "CCc1ncnc(-c2cc(F)c(C(=O)N3CCN(CCN)CC3)c(Cl)c2)c1C#Cc1ccc(N)nc1", "note": "[Example E-286]", "IC50": 527}
{"smiles": "CCc1ncnc(-c2ccc(C(=O)N3CC4(CN(C)C4)C3)c(F)c2)c1C#Cc1ccc(N)nc1", "note": "[Example E-287]", "IC50": 288}
{"smiles": "CCc1ncnc(-c2cc(F)c(C(=O)N3CC4(CN(C)C4)C3)c(Cl)c2)c1C#Cc1ccc(N)nc1", "note": "[Example E-289]", "IC50": 298}
{"smiles": "CCc1ncnc(-c2ccc(C(=O)N3CCN(Cc4cc(C)no4)CC3)c(F)c2)c1C#Cc1ccc(N)nc1", "note": "[Example E-290]", "IC50": 200}
{"smiles": "CCc1ncnc(-c2ccc(C(=O)N3CCN(C(C)COC)CC3)c(F)c2)c1C#Cc1ccc(N)nc1", "note": "(stereo not drawn) [Example E-291]", "IC50": 220}
{"smiles": "CCc1ncnc(-c2ccc(C(=O)N3CCN(C(C)CO)CC3)c(F)c2)c1C#Cc1ccc(N)nc1", "note": "(stereo not drawn) [Example E-292]", "IC50": 212}
{"smiles": "CCc1ncnc(-c2ccc(C(=O)N3CCN(C4CCCC4O)CC3)c(F)c2)c1C#Cc1ccc(N)nc1", "note": "(stereo not drawn) [Example E-294]", "IC50": 137}
{"smiles": "CCc1ncnc(-c2ccc(C(=O)N3CCN(CC(C)O)CC3)c(F)c2)c1C#Cc1ccc(N)nc1", "note": "(stereo not drawn) [Example E-296]", "IC50": 122}
{"smiles": "CCc1ncnc(-c2cc(F)c(C(=O)N3CCN(C(C)COC)CC3)c(F)c2)c1C#Cc1ccc(N)nc1", "note": "(stereo not drawn) [Example E-298]", "IC50": 187}
{"smiles": "CCc1ncnc(-c2cc(F)c(C(=O)N3CCN(C(C)CO)CC3)c(F)c2)c1C#Cc1ccc(N)nc1", "note": "(stereo not drawn) [Example E-299]", "IC50": 160}
{"smiles": "CCc1ncnc(-c2cc(F)c(C(=O)N3CCN(Cc4nc(C)c(C)o4)CC3)c(F)c2)c1C#Cc1ccc(N)nc1", "note": "[Example E-300]", "IC50": 783}
{"smiles": "CCc1ncnc(-c2cc(F)c(C(=O)N3CCN(C4CCCC4O)CC3)c(F)c2)c1C#Cc1ccc(N)nc1", "note": "(stereo not drawn) [Example E-301]", "IC50": 106}
{"smiles": "CCc1ncnc(-c2cc(F)c(C(=O)N3CCN(CCOCCO)CC3)c(F)c2)c1C#Cc1ccc(N)nc1", "note": "[Example E-302]", "IC50": 113}
{"smiles": "CCc1ncnc(-c2cc(F)c(C(=O)N3CCN(Cc4cc(C)no4)CC3)c(Cl)c2)c1C#Cc1ccc(N)nc1", "note": "[Example E-304]", "IC50": 108}
{"smiles": "CCc1ncnc(-c2cc(F)c(C(=O)N3CCN(C(C)COC)CC3)c(Cl)c2)c1C#Cc1ccc(N)nc1", "note": "(stereo not drawn) [Example E-305]", "IC50": 110}
{"smiles": "CCc1ncnc(-c2cc(F)c(C(=O)N3CCN(C(C)CO)CC3)c(Cl)c2)c1C#Cc1ccc(N)nc1", "note": "(stereo not drawn) [Example E-306]", "IC50": 108}
{"smiles": "CCc1ncnc(-c2cc(F)c(C(=O)N3CCN(Cc4nc(C)c(C)o4)CC3)c(Cl)c2)c1C#Cc1ccc(N)nc1", "note": "[Example E-307]", "IC50": 193}
{"smiles": "CCc1ncnc(-c2cc(F)c(C(=O)N3CCN(C4CCCC4O)CC3)c(Cl)c2)c1C#Cc1ccc(N)nc1", "note": "(stereo not drawn) [Example E-308]", "IC50": 63.4}
{"smiles": "CCc1ncnc(-c2cc(F)c(C(=O)N3CCN(CC(C)O)CC3)c(Cl)c2)c1C#Cc1ccc(N)nc1", "note": "(stereo not drawn) [Example E-309]", "IC50": 239}
{"smiles": "CCc1ncnc(-c2cc(F)c(C(=O)N3CCN(CCOCCO)CC3)c(Cl)c2)c1C#Cc1ccc(N)nc1", "note": "[Example E-310]", "IC50": 86}
{"smiles": "CCc1ncnc(-c2cc(F)c(C(=O)N3CCC4(CC3)CC(=O)CO4)c(Cl)c2)c1C#Cc1ccc(N)nc1", "note": "[Example E-311]", "IC50": 69.1}
{"smiles": "CCc1ncnc(-c2ccc(C(=O)N3CCN(Cc4cc(C)no4)CC3)c(Cl)c2)c1C#Cc1ccc(N)nc1", "note": "[Example E-312]", "IC50": 110}
{"smiles": "CCc1ncnc(-c2ccc(C(=O)N3CCN(C(C)COC)CC3)c(Cl)c2)c1C#Cc1ccc(N)nc1", "note": "(stereo not drawn) [Example E-313]", "IC50": 122}
{"smiles": "CCc1ncnc(-c2ccc(C(=O)N3CCN(Cc4nc(C)c(C)o4)CC3)c(Cl)c2)c1C#Cc1ccc(N)nc1", "note": "[Example E-315]", "IC50": 127}
{"smiles": "CCc1ncnc(-c2ccc(C(=O)N3CCN(C4CCCC4O)CC3)c(Cl)c2)c1C#Cc1ccc(N)nc1", "note": "(stereo not drawn) [Example E-316]", "IC50": 57.1}
{"smiles": "CCc1ncnc(-c2ccc(C(=O)N3CCN(CC(C)O)CC3)c(Cl)c2)c1C#Cc1ccc(N)nc1", "note": "(stereo not drawn) [Example E-317]", "IC50": 92.8}
{"smiles": "CCc1ncnc(-c2ccc(C(=O)N3CCN(CCOCCO)CC3)c(Cl)c2)c1C#Cc1ccc(N)nc1", "note": "[Example E-318]", "IC50": 107}
{"smiles": "CCc1ncnc(-c2ccc(C(=O)N3CCC4(CC3)CC(NC(=O)OC(C)(C)C)C4)c(F)c2)c1C#Cc1ccc(N)nc1", "note": "[Example E-319]", "IC50": 360}
{"smiles": "CCc1ncnc(-c2ccc(C(=O)N3CCC4(CC3)CC(N)C4)c(F)c2)c1C#Cc1ccc(N)nc1", "note": "[Example E-320]", "IC50": 1300}
{"smiles": "CCc1ncnc(-c2ccc(C(=O)N3CCC4(CC3)CN(C(=O)OC(C)(C)C)CCO4)c(F)c2)c1C#Cc1ccc(N)nc1", "note": "[Example E-321]", "IC50": 412}
{"smiles": "CCc1ncnc(-c2ccc(C(=O)N3CCC4(CC3)CNCCO4)c(F)c2)c1C#Cc1ccc(N)nc1", "note": "[Example E-322]", "IC50": 391}
{"smiles": "CCc1ncnc(-c2ccc(C(=O)N3CCC4(CN(C(=O)OC(C)(C)C)C4)C3)c(F)c2)c1C#Cc1ccc(N)nc1", "note": "[Example E-323]", "IC50": 842}
{"smiles": "CCc1ncnc(-c2ccc(C(=O)N3CCC4(CNC4)C3)c(F)c2)c1C#Cc1ccc(N)nc1", "note": "[Example E-324]", "IC50": 935}
{"smiles": "CCc1ncnc(-c2ccc(C(=O)N3CCOC4(CCN(C(=O)OC(C)(C)C)CC4)C3)c(F)c2)c1C#Cc1ccc(N)nc1", "note": "[Example E-325]", "IC50": 1180}
{"smiles": "CCc1ncnc(-c2ccc(C(=O)N3CCOC4(CCNCC4)C3)c(F)c2)c1C#Cc1ccc(N)nc1", "note": "[Example E-326]", "IC50": 367}
{"smiles": "CCc1ncnc(-c2ccc(C(=O)N3CCC4(CCN(C(=O)OC(C)(C)C)CC4)C3)c(F)c2)c1C#Cc1ccc(N)nc1", "note": "[Example E-327]", "IC50": 1360}
{"smiles": "CCc1ncnc(-c2ccc(C(=O)N3CCC4(CCNCC4)C3)c(F)c2)c1C#Cc1ccc(N)nc1", "note": "[Example E-328]", "IC50": 586}
{"smiles": "CCc1ncnc(-c2ccc(C(=O)N3C[C@H]4CN(C(=O)OC(C)(C)C)C[C@H]4C3)c(F)c2)c1C#Cc1ccc(N)nc1", "note": "[Example E-329]", "IC50": 238}
{"smiles": "CCc1ncnc(-c2ccc(C(=O)N3C[C@H]4CNC[C@H]4C3)c(F)c2)c1C#Cc1ccc(N)nc1", "note": "[Example E-330]", "IC50": 601}
{"smiles": "CCc1ncnc(-c2ccc(C(=O)N3C[C@@H]4CCN(C(=O)OC(C)(C)C)[C@@H]4C3)c(F)c2)c1C#Cc1ccc(N)nc1", "note": "[Example E-331]", "IC50": 151}
{"smiles": "CCc1ncnc(-c2ccc(C(=O)N3C[C@@H]4CCN[C@@H]4C3)c(F)c2)c1C#Cc1ccc(N)nc1", "note": "[Example E-332]", "IC50": 655}
{"smiles": "CCc1ncnc(-c2cc(Cl)c(C(=O)N3CC4(CN(C)C4)C3)c(Cl)c2)c1C#Cc1ccc(N)nc1", "note": "[Example E-333]", "IC50": 599}
{"smiles": "CCc1ncnc(-c2ccc(C(=O)N3CC4(CN(C)C4)C3)c(Cl)c2)c1C#Cc1ccc(N)nc1", "note": "[Example E-334]", "IC50": 966}
{"smiles": "CCc1ncnc(-c2cc(Cl)c(C(=O)N3CCC4(CC3)CN(C)C4)c(Cl)c2)c1C#Cc1ccc(N)nc1", "note": "[Example E-335]", "IC50": 2210}
{"smiles": "CCc1ncnc(-c2cc(F)c(C(=O)N3CCC4(CC3)CN(C)C4)c(F)c2)c1C#Cc1ccc(N)nc1", "note": "[Example E-336]", "IC50": 773}
{"smiles": "CCc1ncnc(-c2cc(F)c(C(=O)N3CCC4(CC3)CN(C)C4)c(Cl)c2)c1C#Cc1ccc(N)nc1", "note": "[Example E-337]", "IC50": 862}
{"smiles": "CCc1ncnc(-c2ccc(C(=O)N3CCC4(CC3)CN(C)C4)c(Cl)c2)c1C#Cc1ccc(N)nc1", "note": "[Example E-338]", "IC50": 634}
{"smiles": "CCc1ncnc(-c2ccc(C(=O)N3CCC4(CC3)CN(C)C4)c(F)c2)c1C#Cc1ccc(N)nc1", "note": "[Example E-339]", "IC50": 331}
{"smiles": "CCc1ncnc(-c2cc(F)c(C(=O)N3CCN(C)C[C@H]3C)c(F)c2)c1C#Cc1ccc(N)nc1", "note": "[Example E-340]", "IC50": 364}
{"smiles": "CCc1ncnc(-c2cc(F)c(C(=O)N3CCN(C)C[C@@H]3C)c(Cl)c2)c1C#Cc1ccc(N)nc1", "note": "[Example E-341]", "IC50": 282}
{"smiles": "CCc1ncnc(-c2ccc(C(=O)N3CCN(Cc4ncon4)CC3)c(Cl)c2)c1C#Cc1ccc(N)nc1", "note": "[Example E-342]", "IC50": 137}
{"smiles": "CCc1ncnc(-c2ccc(C(=O)N3CCN(CCOCCO)CC3)c(F)c2)c1C#Cc1ccc(N)nc1", "note": "[Example E-345]", "IC50": 109}
